Results: patent US20150307508A1, “Application of an alkaloid derived from a Chinese herbal for treatment of cancer by inhibiting cholesterol synthesis and fatty acid oxidation” (Macau University of Science and Technology, priority 2014, published 2015)
Where “and” joins values, the source holds several entries; their conditions need not be identical. Equal values may be shown once.

How the values were obtained:
H1650 cells [1] = assay: Thin-layer chromatography of total cellular lipid, H1650; type: cell-based, human; conditions: H1650, 5 μM, 72 hours
Description: (§1) Cells were scraped from culture dish and resuspended in 2 ml PBS containing 1× protease inhibitor and 1 mM PMSF. Total cellular lipid was extracted by adding 4 ml chloroform/methanol (2:1). The mixture was vortexed for 1 min and centrifuged at 1500 g×5 min. The organic phase was collected and another 2.5 ml choloroform was added to the residual aqueous phase; the mixture was vortexted and centrifuged at 1500 g×5 min again. The organic phase was collected together with the previous extraction. Thin layer chromatography (TLC) was performed by spotting of the cellular total lipid extract to a 5×10 cm silica gel aluminum sheet and developed with hexane/diethyl ether/acetic acid (80:20:2). Lipids were visualized with iodine vapor and imaged using a desktop scanner
(§2) The overall lipid levels in H1975 and H1650 treated by Berberine were studied in this example. H1975 and H1650 cells were treated with 5 μM BBR for 72 hours and then total cellular lipid was extracted.

H1819 [2] = assay: MTT cytotoxicity assay, H1819; type: cell-based; conditions: Homo sapiens, NCI-H1819, H1819, 72 hrs, read-out: IC50 value after 72 hrs of treatment
From the text: (§3) This example described the BBR-induced cytotoxicity effect in six NSCLC cell lines utilizing MTT cytotoxicity assay. A549 is wild type EGFR and BEAS-2B is normal lung epithelial cells.

H1975 cells [3] = assay: Thin-layer chromatography of total cellular lipid, H1975; type: cell-based, human; conditions: H1975, 5 μM, 72 hours
Description: as §1, §2

[4] = system: H1650 (EGFR^Exon19 deletion); assay: MTT cytotoxicity assay, H1650; type: cell-based; conditions: Homo sapiens, NCI-H1650, H1650, 72 hrs, read-out: IC50 value after 72 hrs of treatment
From the text: as §3

SREBP1 = assay: Real-time PCR analysis of SREBP1 RNA expression; type: cell-based, human; conditions: 24 hrs
Description: (§4) The RNA expression levels of CPT1C and SREBP1 in both H1975 and H1650 cell lines after being treated with 10 μM BBR for 24 hrs were analyzed by Real-time PCR analysis and Western blot analysis, as shown in FIGS. 2A-2D.

[5] = system: BEAS-2B (Normal lung epithelial cell); assay: MTT cytotoxicity assay, BEAS-2B; type: cell-based; conditions: Homo sapiens, 72 hrs, read-out: IC50 value after 72 hrs of treatment
From the text: as §3

CCNB1 = assay: Western blot analysis of CCNB1 protein level in H1975 cells; type: cell-based, human; conditions: 72 hrs
A549 (EGFR^Wild type) = assay: MTT cytotoxicity assay, A549; type: cell-based; conditions: Homo sapiens, A549, 72 hrs, read-out: IC50 value after 72 hrs of treatment
From the text: as §3

H1975 (EGFR^L858R+T790M) = assay: MTT cytotoxicity assay, H1975; type: cell-based; conditions: Homo sapiens, NCI-H1975, H1975, 72 hrs, read-out: IC50 value after 72 hrs of treatment
From the text: as §3

HCC827 = assay: MTT cytotoxicity assay, HCC827; type: cell-based; conditions: Homo sapiens, HCC827, 72 hrs, read-out: IC50 value after 72 hrs of treatment
From the text: as §3

CCND1 = assay: Western blot analysis of CCND1 protein level in H1975 cells; type: cell-based, human; conditions: 72 hrs
CPT1C = assay: Real-time PCR analysis of CPT1C RNA expression; type: cell-based, human; conditions: 24 hrs
Description: as §4

H1650 cells [6] = assay: Cell cycle analysis of H1650; type: cell-based, human; conditions: 72 hrs
From the text: (§5) The anticancer effect of berberine against two most BBR sensitive cell lines are further studied in Example 8, namely H1975 (EGFR^L858R+T790M) and H1650 (EGFR^Exon19 deletion).

H1975 cells [7] = assay: Cell cycle analysis of H1975; type: cell-based, human; conditions: 72 hrs
From the text: as §5

H1650 = conditions: cited from earlier work
H1975 = conditions: cited from earlier work
[8] = system: BEAS-2B (Normal lung epithelial cell); conditions: cited from earlier work
H1819 [9] = conditions: cited from earlier work

COc1ccc2cc3[n+](cc2c1OC)CCc1cc2c(cc1-3)OCO2 [BBR, berberine]
overall lipid levels (TLC) (H1650 cells [1]): lower the overall lipid levels | IC50 (H1819 [2]): 6.51 ± 2.09 µM | overall lipid levels (TLC) (H1975 cells [3]): lower the overall lipid levels | IC50 [4]: 6 ± 2.78 µM | decrease of RNA expression level of SREBP1 vs vehicle control (SREBP1; H1650, 10 μM): 2.64 times | decrease of RNA expression level of SREBP1 vs vehicle control (SREBP1; H1975, 10 μM): 9.23 times | IC50 [5]: 24.7 ± 12.4 µM | protein level of CCNB1 (Western blot) (CCNB1): down-regulated | IC50 (A549 (EGFR^Wild type)): 11.2 ± 3.98 µM | IC50 (H1975 (EGFR^L858R+T790M)): 2.92 ± 0.49 µM | IC50 (HCC827): 8.9 ± 4.4 µM | protein level of CCND1 (Western blot) (CCND1): down-regulated | increase of RNA expression level of CPT1C vs vehicle control (CPT1C; H1650, 10 μM): 5.92 times | increase of RNA expression level of CPT1C vs vehicle control (CPT1C; H1975, 10 μM): 2.005 times | decrease of percentage of G0/G1 phase vs control (H1650 cells [6]; H1650, 5 μM): 21.1% | decrease of percentage of G0/G1 phase vs control (H1650 cells [6]; H1650, 10 μM): 18.3% | decrease of percentage of G0/G1 phase vs control (H1975 cells [7]; H1975, 5 μM): 11.5% | increase of G2 phase vs control (H1975 cells [7]; H1975, 5 μM): 11% | decrease of percentage of G0/G1 phase vs control (H1975 cells [7]; H1975, 10 μM): 14% | increase of G2 phase vs control (H1975 cells [7]; H1975, 10 μM): 15.73% and 15.7%

COc1cc2ncnc(Nc3ccc(F)c(Cl)c3)c2cc1OCCCN1CCOCC1 [Gefitinib]
Gefitinib Sensitivity (H1650): Resistant | Gefitinib Sensitivity (H1975): Resistant | Gefitinib Sensitivity [8]: Resistant | Gefitinib Sensitivity (H1819 [9]): Moderately sensitive
